Measured values taken from US12419966B2, “In vivo radical-mediated polymerization for targeted delivery of trophic factors” (RUTGERS, THE STATE UNIVERSITY OF NEW JERSEY, priority 2017, dated 2025).

Test system: Rat cortical neurons
Experiment: Rat cortical neuron cytotoxicity (MTT)
Format: cell-based
Conditions: above 500 μM
Experimental: Rat Cortical Neuron Culture and Cellular Protection Studies (Cytotoxicity and Protection): Rat cortical neurons were isolated from a timed pregnant animal at embryonic day 18 as described in the literature via techniques commonly employed in the literature. Neurons were cultured in Neurobasal media containing 2% B27 supplement, 1% KCl, 1% penicillin/streptomycin, and 0.5% L-glutamine and seeded into 96 well plates at a density of 100,000 cells/well. […] Cellular metabolic activity was then evaluated using the Vybrant MTT assay (Life Technologies) according to the manufacturer's instructions. […] Metabolic activity was again measured using the MTT assay.
(3-(4,5-dimethylthiazol-2-yl)-2,5-diphenyltetrazolium bromide) (MTT) was added to the cultures at 12 mM and allowed to incubate for 4 hours at 37° C. MTT was metabolized by mitochondrial activity to form an insoluble formazan product. The formazan product was solubilized by the addition of sodium dodecyl sulfate and further incubation for 4 hours. Absorbance measurements at 570 nm were collected to determine the amount of MTT that was metabolized by the culture and viability was reported as a percentage of MTT metabolized by uninjured control cultures.

## O=C1O[C@H]([C@@H](O)CO)C(O)=C1O [ascorbic acid]
  cellular activity of rat cortical neurons: decreases observed
